Source: PMC6332232 (Molecules, 2015)
One block for each molecule: values may come before it.

Legend:
[1] = Enzyme kinetics of evogliptin hydroxylation in pooled human liver microsomes; type: in vitro ADME; conditions: single-enzyme kinetics; for Km at 20 min: human, pH 7.4, Km
Description: Thus, a 20 min incubation time and 0.15 mg/mL microsomal protein concentration were used in subsequent experiments. […] The mixture was centrifuged at 13,000 rpm for 4 min at 4 °C. Subsequently, 50 μL of the supernatant were diluted with 50 μL of deionized water and an aliquot (5 μL) was injected onto the LC-MS/MS system. Results represent the average of three independent experiments using human liver microsomes and human cDNA-expressed CYP and UGT enzymes. […] Systat Software Inc.). In the above-mentioned equations, V was the velocity of the reaction at substrate concentration [S], Vmax was the maximum velocity, Km was the substrate concentration at which the V was half of Vmax, and n is the Hill constant. The intrinsic clearance (Clint) was calculated as Vmax/Km.

[2] = Enzyme kinetics of 4(S)-hydroxyevogliptin glucuronidation in pooled human liver microsomes; type: in vitro ADME
Description: Therefore, a 20 min incubation time and 0.2 mg/mL microsomal protein concentration were selected for enzyme kinetics experiments. The reaction mixture comprised 50 mM Tris buffer (pH 7.4), 10 mM magnesium chloride, 0.025 mg/mL alamethicin, pooled human liver microsomes (20 μg protein), and various concentrations of 4(S)-hydroxyevogliptin (M2) (10 to 2,000 μM; final acetonitrile concentration not exceeding 0.5%, v/v), and was preincubated for 3 min at 37 °C. The reaction was initiated by adding UDPGA, and the mixture was further incubated (final volume of 100 μL) for 20 min at 37 °C in a shaking water bath. The reaction was stopped by adding 100 μL of MPPI (internal standard, 50 ng/mL) in ice-cold acetonitrile. The mixture was centrifuged at 13,000 rpm for 4 min at 4 °C. […]
Results represent the average of three independent experiments using human liver microsomes and human cDNA-expressed CYP and UGT enzymes. The kinetic parameters (Km and Vmax) for hydroxylation and glucuronidation were determined using the Michaelis-Menten equation [V = Vmax·S/(Km + S)], the Hill equation [V = Vmax·S^n/(Km^n + S^n)], or the isoenzyme equation [V = Vmax1·(S/Km1)/(1 + S/Km1) + Vmax2·(S/Km2)/(1 + S/Km2)] with the Enzyme Kinetics software (version 1.3; Systat Software Inc.). […] The intrinsic clearance (Clint) was calculated as Vmax/Km.

not read = substrate: CC(C)(C)OC[C@@H]1C(=O)NCCN1C(=O)C[C@H](N)Cc1cc(F)c(F)cc1F; test: not read; conditions: other: CYP3A5, single-enzyme kinetics; pH 7.4; 37.0 °C
[3] = substrate: CC(C)(C)OC[C@@H]1C(=O)NCCN1C(=O)C[C@H](N)[C@@H](O)c1cc(F)c(F)cc1F; test: Enzyme kinetics of 4(S)-hydroxyevogliptin glucuronidation in human cDNA-expressed UGT2B7; type: in vitro ADME; conditions: other: UGT2B7, Hill equation kinetics; pH 7.4; 37.0 °C
Description: (§1) For the enzyme kinetic study, various concentrations of 4(S)-hydroxyevogliptin (M2) (25 to 2000 μM; final acetonitrile concentration not exceeding 0.5%, v/v) were incubated with human cDNA-expressed UGT2B4 or UGT2B7 enzymes (20 μg protein), 2 mM UDPGA, 0.025 mg/mL alamethicin, and 10 mM magnesium chloride in 50 mM Tris buffer (pH 7.4) for 20 min at 37 °C in a shaking water bath. After adding ice-cold acetonitrile containing internal standard (MPPI, 50 ng/mL), the mixture was centrifuged and diluted as described above, and an aliquot (5 μL) was analyzed using the LC-MS/MS system.
(§2) Results represent the average of three independent experiments using human liver microsomes and human cDNA-expressed CYP and UGT enzymes. The kinetic parameters (Km and Vmax) for hydroxylation and glucuronidation were determined using the Michaelis-Menten equation [V = Vmax·S/(Km + S)], the Hill equation [V = Vmax·S^n/(Km^n + S^n)], or the isoenzyme equation [V = Vmax1·(S/Km1)/(1 + S/Km1) + Vmax2·(S/Km2)/(1 + S/Km2)] with the Enzyme Kinetics software (version 1.3; Systat Software Inc.). In the above-mentioned equations, V was the velocity of the reaction at substrate concentration [S], Vmax was the maximum velocity, Km was the substrate concentration at which the V was half of Vmax, and n is the Hill constant. The intrinsic clearance (Clint) was calculated as Vmax/Km.

[4] = substrate: CC(C)(C)OC[C@@H]1C(=O)NCCN1C(=O)C[C@H](N)[C@@H](O)c1cc(F)c(F)cc1F; test: Enzyme kinetics of 4(S)-hydroxyevogliptin glucuronidation in human cDNA-expressed UGT2B4; type: in vitro ADME; conditions: other: UGT2B4, single-enzyme kinetics; pH 7.4; 37.0 °C
Description: as §1, §2

Molecule: CC(C)(C)OC[C@@H]1C(=O)NCCN1C(=O)C[C@H](N)Cc1cc(F)c(F)cc1F [evogliptin, (R)-4-((R)-3-amino-4-(2,4,5-trifluorophenyl)butanoyl)-3-(tert-butoxymethyl)-piperazin-2-one]
Km at 20 min ([1]; formation of 4(R)-hydroxyevogliptin (M3)): 124 µM | Km at 20 min ([1]; formation of 4(S)-hydroxyevogliptin (M2)): 93.4 µM | Vmax, formation of 4(R)-hydroxyevogliptin (M3) [1]: 113.0 pmol/min/mg protein | Vmax, formation of 4(S)-hydroxyevogliptin (M2) [1]: 91.9 pmol/min/mg protein

Vmax, formation of 4(S)-hydroxyevogliptin glucuronide (M4) ([2]; Hill equation): 711.4 pmol/mg protein/min | Km at 20 min ([2]; pH 7.4, Hill equation): 928 µM
Molecule: CC(C)(C)OC[C@@H]1C(=O)NCCN1C(=O)C[C@H](N)[C@@H](O)c1cc(F)c(F)cc1F [4(S)-hydroxyevogliptin]

B1: CYP3A5 (Homo sapiens) (protein)
chain: MDLIPNLAVETWLLLAVSLVLLYLYGTRTHGLFKRLGIPGPTPLPLLGNVLSYRQGLWKFDTECYKKYGKMWGTYEGQLPVLAITDPDVIRTVLVKECYSVFTNRRSLGPVGFMKSAISLAEDEEWKRIRSLLSPTFTSGKLKEMFPIIAQYGDVLVRNLRREAEKGKPVTLKDIFGAYSMDVITGTSFGVNIDSLNNPQDPFVESTKKFLKFGFLDPLFLSIILFPFLTPVFEALNVSLFPKDTINFLSKSVNRMKKSRLNDKQKHRLDFLQLMIDSQNSKETESHKALSDLELAAQSIIFIFAGYETTSSVLSFTLYELATHPDVQQKLQKEIDAVLPNKAPPTYDAVVQMEYLDMVVNETLRLFPVAIRLERTCKKDVEINGVFIPKGSMVVIPTYALHHDPKYWTEPEEFRPERFSKKKDSIDPYIYTPFGTGPRNCIGMRFALMNMKLALIRVLQNFSFKPCKETQIPLKLDTQGLLQPEKPIVLKVDSRDGTLSGE
kcat (not read): 19.5 pmol/min/pmol CYP

B2: UGT2B7 (Homo sapiens) (protein)
chain: GKVLVWAAEYSHWMNIKTILDELIQRGHEVTVLASSASILFDPNNSSALKIEIYPTSLTKTELENFIMQQIKRWSDLPKDTFWLYFSQVQEIMSIFGDITRKFCKDVVSNKKFMKKVQESRFDVIFADAIFPCSELLAELFNIPFVYSLSFSPGYTFEKHSGGFIFPPSYVPVVMSELTDQMTFMERVKNMIYVLYFDFWFEIFDMKKWDQFYSEVLGRPTTLSETMGKADVWLIRNSWNFQFPYPLLPNVDFVGGLHCKPAKPLPKEMEDFVQSSGENGVVVFSLGSMVSNMTEERANVIASALAQIPQKVLWRFDGNKPDTLGLNTRLYKWIPQNDLLGHPKTRAFITHGGANGIYEAIYHGIPMVGIPLFADQPDNIAHMKARGAAVRVDFNTMSSTDLLNALKRVINDPSYKENVMKLSRIQHDQPVKPLDRAVFWIEFVMRHKGAKHLRVAAHDLTWFQYHSLDVIGFLLVCVATVIFIVTKCCLFCFWKFARKAKKGKND
notes: purchased Corning Life Sciences (Woburn, MA, USA)
Km [3]: 1003.8 µM

B3: UGT2B4 (Homo sapiens) (protein)
chain: GKVLVWPTEFSHWMNIKTILDELVQRGHEVTVLASSASISFDPNSPSTLKFEVYPVSLTKTEFEDIIKQLVKRWAELPKDTFWSYFSQVQEIMWTFNDILRKFCKDIVSNKKLMKKLQESRFDVVLADAVFPFGELLAELLKIPFVYSLRFSPGYAIEKHSGGLLFPPSYVPVVMSELSDQMTFIERVKNMIYVLYFEFWFQIFDMKKWDQFYSEVLGRPTTLSETMAKADIWLIRNYWDFQFPHPLLPNVEFVGGLHCKPAKPLPKEMEEFVQSSGENGVVVFSLGSMVSNTSEERANVIASALAKIPQKVLWRFDGNKPDTLGLNTRLYKWIPQNDLLGHPKTRAFITHGGANGIYEAIYHGIPMVGVPLFADQPDNIAHMKAKGAAVSLDFHTMSSTDLLNALKTVINDPLYKENAMKLSRIHHDQPVKPLDRAVFWIEFVMRHKGAKHLRVAAHDLTWFQYHSLDVTGFLLACVATVIFIITKCLFCVWKFVRTGKKGKRD
notes: purchased Corning Life Sciences
Km [4]: 1,328 μM
